Biological target: T1, Interleukin-1 receptor-associated kinase 4 (Homo sapiens, UniProt Q9NWZ3)
T1 sequence (Q9NWZ3 whole entry): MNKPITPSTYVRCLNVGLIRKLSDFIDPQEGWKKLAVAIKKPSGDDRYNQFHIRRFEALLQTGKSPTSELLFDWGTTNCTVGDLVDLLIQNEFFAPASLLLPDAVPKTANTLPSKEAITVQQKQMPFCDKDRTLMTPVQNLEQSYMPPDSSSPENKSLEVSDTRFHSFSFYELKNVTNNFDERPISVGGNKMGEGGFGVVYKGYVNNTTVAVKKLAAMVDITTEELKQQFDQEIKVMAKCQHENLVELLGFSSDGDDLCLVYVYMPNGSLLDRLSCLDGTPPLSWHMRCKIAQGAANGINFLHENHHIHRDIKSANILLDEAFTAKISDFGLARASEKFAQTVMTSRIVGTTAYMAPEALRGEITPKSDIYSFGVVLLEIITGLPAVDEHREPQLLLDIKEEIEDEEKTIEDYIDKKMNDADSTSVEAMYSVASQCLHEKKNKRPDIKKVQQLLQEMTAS
Assay: In Vitro Enzymatic Activity Evaluation: The inhibitory activity of the test compounds against human IRAK4 was evaluated by measuring IC50 values in a 33P-labeled kinase activity assay (Reaction Biology Corp).Buffer conditions: 20 mM Hepes (pH 7.5), 10 mM MgCl2, 1 mM EGTA, 0.02% Brij35, 0.02 mg/mL BSA, 0.1 mM Na3VO4, 2 mM DTT, 1% DMSO.Procedures: The test compound was dissolved in DMSO at room temperature to prepare a 10 mM solution for later use. The substrate was dissolved in fresh buffer, to which the kinase was added and mixed well. The DMSO solution containing the test compound was added to the above mixed reaction system by an acoustic technique (Echo 550). The concentrations of the compounds in reaction system were 10 μM, 3.33 μM, 1.11 μM, 0.370 μM, 0.123 μM, 41.2 nM, 13.7 nM, 4.57 nM, 1.52 nM, and 0.508 nM. After 15 minutes of incubation, the reaction was started by adding 33P-ATP (activity: 0.01 μCi/μL; the corresponding concentration is listed in Table 1). Supplier's catalog number, lot number and concentration information in the reaction system for IRAK4 and its substrate are listed in Table 1. After 120 minutes of reaction at room temperature, the resulting solution was loaded on P81 ion exchange chromatography paper sheet (Whatman #3698-915). […]

SMILES | IC50
Cc1nsc2nc(Nc3cnn(C4CCOCC4)c3)nc(N[C@H]3CC[C@H](N4C[C@H]5C[C@@H]4CN5C(C)C)CC3)c12 | 231 nM
Cc1nsc2nc(Nc3cnn(C4(C)COC4)c3)nc(N[C@H]3CC[C@H](N4CCOCC4)CC3)c12 | 13.5 nM

Source: ChEMBL document CHEMBL5729357, “Isothiazolo[5,4-D]pyrimidine compound as IRAK4 inhibitor” (2022)
